The values that follow are results of earlier work, collected in patent US20260174683A1, “CHEWABLE COMPOSITION COMPRISING A GUMMY MATRIX AND COMPRISING MELATONIN, SODIUM ALGINATE, AND CALCIUM LACTATE” (S.I.I.T. S.R.L.-SERVIZIO INTERNAZIONALE IMBALLAGGI …, priority 2022, published 2026).

Molecules are shown by their SMILES.

Regarding `CC(O)C(=O)[O-].CC(O)C(=O)[O-].[Mg+2]` (centres unmarked) [Magnesium lactate, magnesium lactate], the “pH of 5% solution in water” value is 6.5-8.5.

Consider `CC(O)C(=O)[O-].CC(O)C(=O)[O-].[Ca+2]` (centres unmarked) [calcium lactate], for which the “pH of 5% solution in water” value was 6-8.
